Like-named read-outs stand apart in the source and are kept apart here.
What was measured:
[1] = test system: spring kale (Brassica oleracea); experiment: Field trial, crop injury to spring kale, post-emergence; assay type: in vivo; conditions: B12-B16 crop stage
Excerpt: Data from the trials on spring kale (Brassica oleracea) are summarized Table 4.

[2] = test system: Winfred forage brassica (Brassica rapa × oleracea); experiment: Field trial, crop injury to Winfred forage brassica, post-emergence; assay type: in vivo; conditions: B14-B16 crop stage, Australia
[3] = test system: common lambsquarters (Chenopodium album L.); experiment: Field trial in sugar beet, visual control of common lambsquarters; assay type: in vivo; conditions: 36 days following last application
Excerpt: (§1) As used herein, selective post-emergent control of undesirable vegetation means preventing, reducing, killing, or otherwise adversely modifying the development of the undesirable vegetation in the presence of crop plants with limited adverse effect on the crop plants. For example, a broadleaf weed control of 80% (rated visually) with crop injury of less than or equal to 20%, rated visually, would constitute selective control. In some embodiments the adverse effect on crop plants is limited to less than 10% visually rated crop injury. […] Visual weed control is a composite rating accounting for reductions in pest plant biomass and/or stand reduction.
(§2) Treatments 4 and 5 were split applications at the two indicated growth stages.

[4] = test system: wild buckwheat (Polygonum convolvulus L.); experiment: Field trial in sugar beet, visual control of wild buckwheat; assay type: in vivo; conditions: 36 days following last application
Excerpt: as §1, §2

[5] = test system: Juncea canola (Brassica juncea); conditions: for Percent (%) Crop Injury (Mean Value): B12-B14 crop stage; for injury to Juncea canola, on average did not exceed: five field trials
[6] = test system: spring turnip (Brassica rapa); conditions: for Percent (%) Crop Injury (Mean Value): B12-B16 crop stage; for injury to turnip, on average did not exceed: three field trials
[7] = test system: spring rutabaga (Brassica napus); conditions: for Percent (%) Crop Injury (Mean Value): B12-B14 crop stage; for injury to rutabaga, on average did not exceed: three field trials
[8] = test system: spring sorghum (Sorghum vulgare); experiment: Field trial, crop injury to spring sorghum, post-emergence; conditions: B17-B22 crop stage
[9] = test system: spring sunflower (Helianthus annuus); experiment: Field trial, crop injury to spring sunflower, post-emergence; conditions: B12-B14 crop stage, Australia
[10] = test system: yellow mustard (Sinapis alba); experiment: Field trial, crop injury to and yield of yellow mustard, post-emergence; conditions: B14-B15 crop stage
[11] = test system: certain members of the Amaranthaceae, Asteraceae, Lamiaceae, Rubiaceae, Papaveraceae and Brassicaceae families; experiment: Herbicidal activity (LD90) on plant families; assay type: in vivo; conditions: grams acid equivalent per hectare
[12] = test system: broadleaf weeds including cleavers (Galium aparine), chickweed (Stellaria media), pigweed (Amaranthus spp.), lamb's-quarters (Chenopodium album) and others; experiment: Efficacy on commercially relevant broadleaf weeds; assay type: in vivo; conditions: application rate of 2.5 to 10 g ae/ha
[13] = test system: sunflowers, sorghum, yellow mustard, Brassicaceae-family crops, and sugar beets; experiment: Overall crop safety, post-emergence application; assay type: in vivo; conditions: post-emergence application rates of ≤10 g ae/ha
[14] = rate 2.5 (g ae/ha), 1 week after application
[15] = rate 2.5, 3-5 weeks after application
[16] = rate 5, 1 week after application
[17] = rate 5, 3-5 weeks after application
[18] = rate 10, 1 week after application
[19] = rate 10, 3-5 weeks after application
[20] = rate 20, 1 week after application
[21] = rate 2.5, 6-10 weeks after application
[22] = rate 5, 6-10 weeks after application
[23] = rate 10, 6-10 weeks after application
[24] = rate 20, 3-5 weeks after application
[25] = treatment 1: 1.0 g ae/ha at BEAVA stage B12-B16
[26] = treatment 2: 2.0 g ae/ha at BEAVA stage B12-B16
[27] = treatment 3: 3.0 g ae/ha at BEAVA stage B12-B16
[28] = treatment 4: split application 0.5 g ae/ha at B10-B12 and 0.5 g ae/ha at B12-B16
[29] = treatment 5: split application 1.0 g ae/ha at B10-B12 and 1.0 g ae/ha at B12-B16
[30] = rate 20, 6-10 weeks after application
[31] = rate 2.5 (g ae/ha), 3-5 weeks after application

COC(=O)c1nc(-c2ccc(Cl)c(OC)c2F)cc(N)c1Cl [4-Amino-3-chloro-6-(4-chloro-2-fluoro-3-methoxyphenyl)pyridine-2-carboxylic acid methyl ester]
Percent (%) Crop Injury (Mean Value) [1, 14]: 2.5% | Percent (%) Crop Injury (Mean Value) [1, 15]: 0% | Percent (%) Crop Injury (Mean Value) [1, 16]: 1.3% | Percent (%) Crop Injury (Mean Value) [1, 17]: 1.3% | Percent (%) Crop Injury (Mean Value) [1, 18]: 2.5% | Percent (%) Crop Injury (Mean Value) [1, 19]: 3.8% | Percent (%) Crop Injury (Mean Value) [1, 20]: 15% | Percent (%) Crop Injury (Mean Value) [2, 21]: 7.5% | Percent (%) Crop Injury (Mean Value) [2, 17]: 9.2% | Percent (%) Crop Injury (Mean Value) [2, 22]: 7.5% | Percent (%) Crop Injury (Mean Value) [2, 19]: 8.8% | Percent (%) Crop Injury (Mean Value) [2, 23]: 0% | Percent (%) Crop Injury (Mean Value) [2, 24]: 11.3% | Percent (%) Visual Control CHEAL [3, 25]: 35% | Percent (%) Visual Control CHEAL [3, 26]: 98% | Percent (%) Visual Control CHEAL [3, 27]: 95.8% | Percent (%) Visual Control CHEAL [3, 28]: 30% | Percent (%) Visual Control CHEAL [3, 29]: 96.8% | Percent (%) Visual Control POLCO [4, 25]: 5% | Percent (%) Visual Control POLCO [4, 26]: 22.5% | Percent (%) Visual Control POLCO [4, 27]: 60% | Percent (%) Visual Control POLCO [4, 28]: 20% | Percent (%) Visual Control POLCO [4, 29]: 35% | Percent (%) Crop Injury (Mean Value) [5, 14]: 2.5% | Percent (%) Crop Injury (Mean Value) [5, 15]: 7.5% | Percent (%) Crop Injury (Mean Value) [5, 21]: 5% | Percent (%) Crop Injury (Mean Value) [5, 16]: 3.8% | Percent (%) Crop Injury (Mean Value) [5, 17]: 10.5% | Percent (%) Crop Injury (Mean Value) [5, 22]: 11.3% | Percent (%) Crop Injury (Mean Value) [5, 18]: 3.8% | Percent (%) Crop Injury (Mean Value) [5, 19]: 5.5% | Percent (%) Crop Injury (Mean Value) [5, 23]: 3.8% | Percent (%) Crop Injury (Mean Value) [5, 20]: 30% | Percent (%) Crop Injury (Mean Value) [5, 24]: 13.8% | Percent (%) Crop Injury (Mean Value) [5, 30]: 0% | Percent (%) Crop Injury (Mean Value) [6, 14]: 2.5% | Percent (%) Crop Injury (Mean Value) [6, 15]: 2.5% | Percent (%) Crop Injury (Mean Value) [6, 16]: 5% | Percent (%) Crop Injury (Mean Value) [6, 17]: 1.3% | Percent (%) Crop Injury (Mean Value) [6, 18]: 7.5% | Percent (%) Crop Injury (Mean Value) [6, 19]: 7.5% | Percent (%) Crop Injury (Mean Value) [6, 24]: 7.5% | Percent (%) Crop Injury (Mean Value) [7, 14]: 6.3% | Percent (%) Crop Injury (Mean Value) [7, 15]: 3.8% | Percent (%) Crop Injury (Mean Value) [7, 16]: 10% | Percent (%) Crop Injury (Mean Value) [7, 17]: 3.3% | Percent (%) Crop Injury (Mean Value) [7, 18]: 15% | Percent (%) Crop Injury (Mean Value) [7, 19]: 7.5% | Percent (%) Crop Injury (Mean Value) [7, 20]: 27.5% | Percent (%) Crop Injury (Mean Value) [7, 24]: 15% | Percent (%) Crop Injury (Mean Value) [8, 31]: 8.3% | Percent (%) Crop Injury (Mean Value) [8, 21]: 13.3% | Percent (%) Crop Injury (Mean Value) [8, 17]: 11.7% | Percent (%) Crop Injury (Mean Value) [8, 22]: 18.3% | Percent (%) Crop Injury (Mean Value) [8, 19]: 18.3% | Percent (%) Crop Injury (Mean Value) [8, 23]: 15% | Percent (%) Crop Injury (Mean Value) [8, 24]: 13.3% | Percent (%) Crop Injury (Mean Value) [8, 30]: 15% | Percent (%) Crop Injury (Mean Value) [9, 31]: 6.7% | Percent (%) Crop Injury (Mean Value) [9, 21]: 6.7% | Percent (%) Crop Injury (Mean Value) [9, 17]: 13.3% | Percent (%) Crop Injury (Mean Value) [9, 22]: 11.7% | Percent (%) Crop Injury (Mean Value) [9, 19]: 15% | Percent (%) Crop Injury (Mean Value) [9, 23]: 8.3% | Percent (%) Crop Injury (Mean Value) [9, 24]: 22.3% | Percent (%) Crop Injury (Mean Value) [9, 30]: 6.7% | Percent (%) Crop Injury (Mean Value of Four Observations) [10, 14]: 8.5% | Percent (%) Crop Injury (Mean Value of Four Observations) ([10]; rate 2.5, 2 weeks after application): 4.8% | Percent (%) Crop Injury (Mean Value of Four Observations) [10, 15]: 4.5% | Percent (%) Crop Injury (Mean Value of Four Observations) [10, 16]: 14.3% | Percent (%) Crop Injury (Mean Value of Four Observations) ([10]; rate 5, 2 weeks after application): 10% | Percent (%) Crop Injury (Mean Value of Four Observations) [10, 17]: 7.5% | Percent (%) Crop Injury (Mean Value of Four Observations) [10, 18]: 21.3% | Percent (%) Crop Injury (Mean Value of Four Observations) ([10]; rate 10, 2 weeks after application): 25% | Percent (%) Crop Injury (Mean Value of Four Observations) [10, 19]: 16.3% | Percent (%) Crop Injury (Mean Value of Four Observations) [10, 20]: 23.8% | Percent (%) Crop Injury (Mean Value of Four Observations) ([10]; rate 20, 2 weeks after application): 35% | Percent (%) Crop Injury (Mean Value of Four Observations) [10, 24]: 25%

COc1c(Cl)ccc(-c2cc(N)c(Cl)c(C(=O)O)n2)c1F [Compound I, 4-amino-3-chloro-6-(4-chloro-2-fluoro-3-methoxyphenyl)pyridine-2-carboxylic acid]
LD90 [11]: ≤ 10 g ae/ha | efficacy on commercially relevant broadleaf weeds [12]: highly efficacious | crop injury [13]: little to no crop injury | injury to Juncea canola, on average did not exceed ([5]; 2.5 g ae/ha): ≤ 7.5% | injury to Juncea canola, on average did not exceed ([5]; 5 g ae/ha): ≤ 11.3% | injury to Juncea canola, on average did not exceed ([5]; 10 g ae/ha): ≤ 5.5% | injury to turnip, on average did not exceed ([6]; 2.5 g ae/ha): ≤ 2.5% | injury to turnip, on average did not exceed ([6]; 5 g ae/ha): ≤ 5% | injury to turnip, on average did not exceed ([6]; 10 g ae/ha): ≤ 7.5% | injury to rutabaga, on average did not exceed ([7]; 2.5 g ae/ha): ≤ 6.3% | injury to rutabaga, on average did not exceed ([7]; 5 g ae/ha): ≤ 10% | injury to rutabaga, on average did not exceed ([7]; 10 g ae/ha): ≤ 15%

From patent publication US11109592B2, “Selective weed control methods” (Corteva Agriscience LLC, priority 2013, dated 2021)
